# Data reported in patent publication US8378085B2, “Bacterial ATP synthase binding domain” (priority 2004, dated 2013).
# Test system: M. tuberculosis strains resistant to J
# Format: cell-based, Mycobacterium tuberculosis
row,SMILES,sensitivity of M. tuberculosis strains resistant to J to the anti-TB agent
1,[H]/N=C(/N)N[C@H]1[C@H](O)[C@@H](O)[C@H](O[C@@H]2O[C@@H](C)[C@](O)(C=O)[C@H]2O[C@@H]2O[C@@H](CO)[C@H](O)[C@@H](O)[C@@H]2NC)[C@@H](N/C(N)=N\[H])[C@@H]1O [streptomycin],unchanged
2,NNC(=O)c1ccncc1 [isoniazid],unchanged
3,CC[C@@H](CO)NCCN[C@@H](CC)CO [ethambutol],unchanged
4,NCC[C@H](O)C(=O)N[C@@H]1C[C@H](N)[C@@H](O[C@H]2O[C@H](CN)[C@@H](O)[C@H](O)[C@H]2O)[C@H](O)[C@H]1O[C@H]1O[C@H](CO)[C@@H](O)[C@H](N)[C@H]1O [amikacin],unchanged
5,CO[C@H]1/C=C/O[C@@]2(C)Oc3c(C)c(O)c4c(O)c(c(/C=N/N5CCN(C)CC5)c(O)c4c3C2=O)NC(=O)/C(C)=C\C=C\[C@H](C)[C@H](O)[C@@H](C)[C@@H](O)[C@@H](C)[C@H](OC(C)=O)[C@@H]1C [rifampin],unchanged

# Test system: DARQ J mutant M. tuberculosis
# Format: cell-based, Mycobacterium tuberculosis
row,SMILES,effect on ATP production (total cellular ATP)
1,COc1nc2ccc(Br)cc2cc1[C@@H](c1ccccc1)[C@@](O)(CCN(C)C)c1cccc2ccccc12 [J],did not show any decrease
2,"C(=NC1CCCCC1)=NC1CCCCC1 [DCCD, reference compound]",able to block the ATP production
